{"source": "patent US20240279220A1", "about": "“INDOLE COMPOUNDS AND METHODS OF USE” (Genzyme Corporation, priority 2021, published 2024)"}
{"tested_on": "NBD1/3D", "experiment": "Aggregation analysis using differential static light scattering (DSLS), NBD1 thermal stability", "format": "binding, Human", "conditions": "ΔTagg versus DMSO control; compound at 100 μM", "procedure,_shortened": "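Thermal stabilisation reported as ΔTagg, i.e. aggregation temperature relative to averaged DMSO wells. Tagg came from the inflection of differential static light scattering imaged 25–70 °C while NBD1 (0.2 mg/ml, Tris pH 7.6 buffer containing ATP, MgCl2, DTT, glycerol) was ramped 1 °C/min.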"}
{"smiles": "O=C(O)CCc1cccc(C2(c3csc(-c4cc(Oc5c(F)cc6[nH]ccc6c5F)ccc4F)n3)CC(F)(F)C2)c1", "note": "[Example 94, 3-(3-(1-(2-(5-((4,6-difluoro-1H-indol-5-yl)oxy)-2-fluorophenyl)thiazol-4-yl)-3,3-difluorocyclobutyl)phenyl)propanoic acid]", "DSLS NBD1/3D Human Stability delta-T (° C.) @ 100 (μM)": "B (B: 5-10° C.)"}
{"smiles": "O=C(O)CCc1cccc(C2(c3csc(-c4cccc(Oc5c(F)cc6[nH]ccc6c5F)c4)n3)CCOCC2)c1", "note": "[Example 95, 3-(3-(4-(2-(3-((4,6-difluoro-1H-indol-5-yl)oxy)phenyl)thiazol-4-yl)tetrahydro-2H-pyran-4-yl)phenyl)propanoic acid]", "DSLS NBD1/3D Human Stability delta-T (° C.) @ 100 (μM)": "B (B: 5-10° C.)"}
{"smiles": "CC(O)(c1cccc(CCC(=O)O)c1)c1cnc(-c2cc(Oc3c(F)cc4[nH]ccc4c3P(C)(C)=O)ccc2F)[nH]1", "note": "(stereo not drawn) [Example 96, 3-(3-(1-(2-(5-((4-(Dimethylphosphoryl)-6-fluoro-1H-indol-5-yl)oxy)-2-fluorophenyl)-1H-imidazol-5-yl)-1-hydroxyethyl)phenyl)propanoic acid]", "DSLS NBD1/3D Human Stability delta-T (° C.) @ 100 (μM)": "B (B: 5-10° C.)"}
{"smiles": "CC(O)(c1cccc(CCC(=O)O)c1)c1csc(-c2cccc(Oc3c(F)cc4[nH]ccc4c3P(C)(C)=O)c2)n1", "note": "(stereo not drawn) [Example 98, 3-(3-(1-(2-(3-((4-(Dimethylphosphoryl)-6-fluoro-1H-indol-5-yl)oxy)phenyl)thiazol-4-yl)-1-hydroxyethyl)phenyl)propanoic acid]", "DSLS NBD1/3D Human Stability delta-T (° C.) @ 100 (μM)": "B (B: 5-10° C.)"}
{"smiles": "O=C(O)CCc1cccc(Cc2csc(-c3cccc(Oc4ccc5[nH]ccc5c4CO)c3)n2)c1", "note": "[Example 99, 3-(3-((2-(3-((4-(Hydroxymethyl)-1H-indol-5-yl)oxy)phenyl)thiazol-4-yl)methyl)phenyl)propanoic acid]", "DSLS NBD1/3D Human Stability delta-T (° C.) @ 100 (μM)": "B (B: 5-10° C.)"}
{"smiles": "O=C(O)CCc1cccc(Cc2cnc(-c3cc(Oc4c(F)cc5[nH]ccc5c4F)ccc3F)[nH]2)c1F", "note": "[Example 100, 3-(3-((2-(5-((4,6-Difluoro-1H-indol-5-yl)oxy)-2-fluorophenyl)-1H-imidazol-5-yl)methyl)-2-fluorophenyl)propanoic acid]", "DSLS NBD1/3D Human Stability delta-T (° C.) @ 100 (μM)": "B (B: 5-10° C.)"}
{"smiles": "COC(=O)CCc1cccc(Cc2c[nH]c(-c3cc(Oc4c(F)cc5[nH]ccc5c4F)ccc3F)n2)c1", "note": "[Example 101, methyl 3-(3-((2-(5-((4,6-difluoro-1H-indol-5-yl)oxy)-2-fluorophenyl)-1H-imidazol-4-yl)methyl)phenyl)propanoate]", "DSLS NBD1/3D Human Stability delta-T (° C.) @ 100 (μM)": "C (C: ≤5° C.)"}
{"smiles": "O=C(O)CCc1cccc(Cc2cnc(-c3cccc(Oc4c(F)cc5[nH]ccc5c4SC(F)(F)F)c3)[nH]2)c1", "note": "[Example 102, 3-(3-((2-(3-((6-fluoro-4-((trifluoromethyl)thio)-1H-indol-5-yl)oxy)phenyl)-1H-imidazol-5-yl)methyl)phenyl)propanoic acid]", "DSLS NBD1/3D Human Stability delta-T (° C.) @ 100 (μM)": "B (B: 5-10° C.)"}
{"smiles": "O=C(O)CCc1ccc(F)c(Cc2cnc(-c3cc(Oc4c(F)cc5[nH]ccc5c4F)ccc3F)[nH]2)c1", "note": "[Example 103, 3-(3-((2-(5-((4,6-difluoro-1H-indol-5-yl)oxy)-2-fluorophenyl)-1H-imidazol-5-yl)methyl)-4-fluorophenyl)propanoic acid]", "DSLS NBD1/3D Human Stability delta-T (° C.) @ 100 (μM)": "B (B: 5-10° C.)"}
{"smiles": "O=C(O)CCc1cccc(Cc2cnc(-c3cc(Oc4ccc5[nH]ccc5c4C(F)(F)F)ccc3F)[nH]2)c1", "note": "[Example 104, 3-(3-((2-(2-fluoro-5-((4-(trifluoromethyl)-1H-indol-5-yl)oxy)phenyl)-1H-imidazol-5-yl)methyl)phenyl)propanoic acid]", "DSLS NBD1/3D Human Stability delta-T (° C.) @ 100 (μM)": "B (B: 5-10° C.)"}
{"smiles": "Cc1c(Oc2ccc(F)c(-c3ncc(Cc4cc(F)cc(CCC(=O)O)c4)[nH]3)c2)c(F)c(F)c2[nH]ccc12", "note": "[Example 105, 3-(3-((2-(5-((6,7-difluoro-4-methyl-1H-indol-5-yl)oxy)-2-fluorophenyl)-1H-imidazol-5-yl)methyl)-5-fluorophenyl)propanoic acid]", "DSLS NBD1/3D Human Stability delta-T (° C.) @ 100 (μM)": "B (B: 5-10° C.)"}
{"smiles": "Cc1c(Oc2ccc(F)c(-c3ncc(Cc4cc(F)cc(CCC(=O)O)c4)[nH]3)c2)ccc2[nH]ccc12", "note": "[Example 106, 3-(3-fluoro-5-((2-(2-fluoro-5-((4-methyl-1H-indol-5-yl)oxy)phenyl)-1H-imidazol-5-yl)methyl)phenyl)propanoic acid]", "DSLS NBD1/3D Human Stability delta-T (° C.) @ 100 (μM)": "B (B: 5-10° C.)"}
{"smiles": "O=C(O)CCc1cccc(Cc2cnc(-c3cc(Oc4c(F)cc5[nH]ccc5c4Cl)ccc3F)[nH]2)c1", "note": "[Example 107, 3-(3-((2-(5-((4-chloro-6-fluoro-1H-indol-5-yl)oxy)-2-fluorophenyl)-1H-imidazol-5-yl)methyl)phenyl)propanoic acid]", "DSLS NBD1/3D Human Stability delta-T (° C.) @ 100 (μM)": "B (B: 5-10° C.)"}
{"smiles": "Cc1c(Oc2ccc(F)c(-c3ncc(Cc4cc(F)cc(CCC(=O)O)c4)[nH]3)c2)c(F)cc2[nH]ccc12", "note": "[Example 108, 3-(3-fluoro-5-((2-(2-fluoro-5-((6-fluoro-4-methyl-1H-indol-5-yl)oxy)phenyl)-1H-imidazol-5-yl)methyl)phenyl)propanoic acid]", "DSLS NBD1/3D Human Stability delta-T (° C.) @ 100 (μM)": "B (B: 5-10° C.)"}
{"smiles": "Cc1c(Oc2ccc(F)c(-c3nc(Cc4cccc(CCC(=O)O)c4)c[nH]3)c2)ccc2[nH]ccc12", "note": "[Example 109, 3-(3-((2-(2-fluoro-5-((4-methyl-1H-indol-5-yl)oxy)phenyl)-1H-imidazol-4-yl)methyl)phenyl)propanoic acid]", "DSLS NBD1/3D Human Stability delta-T (° C.) @ 100 (μM)": "B (B: 5-10° C.)"}
{"smiles": "O=C(O)CCc1cccc(Cc2cnc(-c3cc(Oc4c(F)cc5[nH]ccc5c4F)ccc3F)[nH]2)c1Cl", "note": "[Example 110, 3-(2-chloro-3-((2-(5-((4,6-difluoro-1H-indol-5-yl)oxy)-2-fluorophenyl)-1H-imidazol-5-yl)methyl)phenyl)propanoic acid]", "DSLS NBD1/3D Human Stability delta-T (° C.) @ 100 (μM)": "B (B: 5-10° C.)"}
{"smiles": "O=C(O)CCc1cccc(Cc2c[nH]c(-c3cc(Oc4c(F)cc5[nH]ccc5c4Cl)ccc3F)n2)c1F", "note": "[Example 111, 3-(3-((2-(5-((4-chloro-6-fluoro-1H-indol-5-yl)oxy)-2-fluorophenyl)-1H-imidazol-4-yl)methyl)-2-fluorophenyl)propanoic acid]", "DSLS NBD1/3D Human Stability delta-T (° C.) @ 100 (μM)": "B (B: 5-10° C.)"}
{"smiles": "Cc1c(Oc2ccc(F)c(-c3nc(Cc4cccc(CCC(=O)O)c4F)c[nH]3)c2)c(F)c(F)c2[nH]ccc12", "note": "[Example 112, 3-(3-((2-(5-((6,7-difluoro-4-methyl-1H-indol-5-yl)oxy)-2-fluorophenyl)-1H-imidazol-4-yl)methyl)-2-fluorophenyl)propanoic acid]", "DSLS NBD1/3D Human Stability delta-T (° C.) @ 100 (μM)": "B (B: 5-10° C.)"}
{"smiles": "O=C(O)CCc1cc(F)cc(Cc2cnc(-c3cc(Oc4c(F)cc5[nH]ccc5c4CC(F)(F)F)ccc3F)[nH]2)c1", "note": "[Example 113, 3-(3-fluoro-5-((2-(2-fluoro-5-((6-fluoro-4-(2,2,2-trifluoroethyl)-1H-indol-5-yl)oxy)phenyl)-1H-imidazol-5-yl)methyl)phenyl)propanoic acid]", "DSLS NBD1/3D Human Stability delta-T (° C.) @ 100 (μM)": "B (B: 5-10° C.)"}
{"smiles": "O=C(O)CCc1cc(F)cc(Cc2c[nH]c(-c3cc(Oc4c(F)cc5[nH]ccc5c4F)ccc3F)n2)c1", "note": "[Example 114, 3-(3-((2-(5-((4,6-difluoro-1H-indol-5-yl)oxy)-2-fluorophenyl)-1H-imidazol-4-yl)methyl)-5-fluorophenyl)propanoic acid]", "DSLS NBD1/3D Human Stability delta-T (° C.) @ 100 (μM)": "B (B: 5-10° C.)"}
{"smiles": "Cc1c(Oc2ccc(F)c(-c3ncc(Cc4cccc(CCC(=O)O)c4)[nH]3)c2)c(F)cc2[nH]ccc12", "note": "[Example 115, 3-(3-((2-(2-fluoro-5-((6-fluoro-4-methyl-1H-indol-5-yl)oxy)phenyl)-1H-imidazol-5-yl)methyl)phenyl)propanoic acid]", "DSLS NBD1/3D Human Stability delta-T (° C.) @ 100 (μM)": "B (B: 5-10° C.)"}
{"smiles": "Cc1c(Oc2ccc(F)c(-c3ncc(Cc4cccc(CCC(=O)O)c4F)[nH]3)c2)ccc2[nH]ccc12", "note": "[Example 116, 3-(2-fluoro-3-((2-(2-fluoro-5-((4-methyl-1H-indol-5-yl)oxy)phenyl)-1H-imidazol-5-yl)methyl)phenyl)propanoic acid]", "DSLS NBD1/3D Human Stability delta-T (° C.) @ 100 (μM)": "B (B: 5-10° C.)"}
{"smiles": "O=C(O)CCc1cccc(Cc2c[nH]c(-c3cc(Oc4c(F)cc5[nH]ccc5c4CC(F)F)ccc3F)n2)c1", "note": "[Example 117, 3-(3-((2-(5-((4-(2,2-difluoroethyl)-6-fluoro-1H-indol-5-yl)oxy)-2-fluorophenyl)-1H-imidazol-4-yl)methyl)phenyl)propanoic acid]", "DSLS NBD1/3D Human Stability delta-T (° C.) @ 100 (μM)": "B (B: 5-10° C.)"}
{"smiles": "N#Cc1c(CCC(=O)O)cccc1Cc1cnc(-c2cc(Oc3c(F)cc4[nH]ccc4c3F)ccc2F)[nH]1", "note": "[Example 122, 3-(2-cyano-3-((2-(5-((4,6-difluoro-1H-indol-5-yl)oxy)-2-fluorophenyl)-1H-imidazol-5-yl)methyl)phenyl)propanoic acid]", "DSLS NBD1/3D Human Stability delta-T (° C.) @ 100 (μM)": "B (B: 5-10° C.)"}
{"smiles": "NC(=O)CCc1cccc(Cc2c[nH]c(-c3cc(Oc4c(F)cc5[nH]ccc5c4F)ccc3F)n2)c1", "note": "[Example 127, 3-(3-((2-(5-((4,6-Difluoro-1H-indol-5-yl)oxy)-2-fluorophenyl)-1H-imidazol-4-yl)methyl)phenyl)propanamide]", "DSLS NBD1/3D Human Stability delta-T (° C.) @ 100 (μM)": "C (C: ≤5° C.)"}
{"smiles": "NCc1c(CCC(=O)O)cccc1Cc1cnc(-c2cc(Oc3c(F)cc4[nH]ccc4c3F)ccc2F)[nH]1", "note": "[Example 141, 3-(2-(Aminomethyl)-3-((2-(5-((4,6-difluoro-1H-indol-5-yl)oxy)-2-fluorophenyl)-1H-imidazol-5-yl)methyl)phenyl)propanoic acid]", "DSLS NBD1/3D Human Stability delta-T (° C.) @ 100 (μM)": "C (C: ≤5° C.)"}
{"smiles": "CC1CC(c2cccc(CCC(=O)O)c2)(c2cnc(-c3cc(Oc4c(F)cc5[nH]ccc5c4F)ccc3F)[nH]2)CC(C)O1", "note": "(stereo not drawn) [Example 142, 3-(3-(4-(2-(5-((4,6-Difluoro-1H-indol-5-yl)oxy)-2-fluorophenyl)-1H-imidazol-5-yl)-2,6-dimethyltetrahydro-2H-pyran-4-yl)phenyl)propanoic acid]", "DSLS NBD1/3D Human Stability delta-T (° C.) @ 100 (μM)": "A (A: T ≥ 10° C.)"}
